Laboratory results taken from patent US9023788B2, “Methods compounds and pharmaceutical compositions for treating anxiety and mood disorders” (New York University, priority 2010, dated 2015).
Marks after values point to notes of the source that are not given here.

Legend:
LC α1-adrenoceptors = assay: Novel cage test after LC microinjection; format: in vivo, rat; conditions: for Gross movements: 15 min novel cage
[1] = system: Fos expression in LC, PVH, lateral septal nucleus and NAC; conditions: stimulation or blockade of LC α1-receptors (Stone et al. 2011); cited from earlier work
α1-adrenoceptors = conditions: cited from earlier work
Swiss Webster male mice [2] = assay: Tail suspension test; format: in vivo, mouse
Experimental: (§2) In experiment on chronic administration, a daily dose of 0.5 mg/kg in the same vehicle was administered for 11 d.
(§3) Infusion procedure. All experiments were performed between 1000 and 1400 hr. […] A total of 350 n1 of solution was infused at 100 nl/min over a 3.5 min period with the cannula remaining in place for 30 seconds after infusion. The animal was then subjected to the behavioral tests described below making the interval between the start of infusion and start of behavioral test 4.5-5 min. […] All drugs were prepared freshly each day in saline.
Tail suspension test: The procedure of Stem, et al., Psychopharmacology 1985; 85: 367-370 was used. Immediately following intraventricular infusion or 30 min after the third i.p. injection, the animals were taped by the tail 72 cm above a padded platform for 6 min during which time they were videorecorded. Disks were subsequently rated blind as above for times immobile during the last 4 min of the test.

mice [3] = assay: Light/dark box test; format: in vivo, mouse; conditions: dp6FNE 0, 1, 3, 10 mg/kg i.p. plus phentolamine 1 mg/kg; Example 6, expected
Experimental: (§1) To verify that dp6FNE has anxiolytic effects this agent is tested in both the light/dark box (Shimada, et al., Gen Pharmac 1995; 26: 205-210) and elevated plus-maze (Pellow, et al., J Neurosci Methods 1985; 14: 149-167). […] For the plus-maze, the animal is placed in the center section of the maze and videotaped to determine both number of entries and time spent in the open and closed arms of the maze.

Swiss Webster male mice [4] = assay: Repeated open space forced swim (RFS) test
Experimental: as §2, §3
In this procedure, mice are swum for 15-20 min/d for 4 d in rat tub cages (24×43×23 cm, w×h×l) filled with 13 cm high luke-warm water (32-34° C.) and thereafter once or twice a week. […] In the present experiment, the animals were matched on immobility level of the 4th swim into vehicle and drug groups and infused ivt. just prior to the 5th swim. Groups given i.p. injections were dosed initially 5 min after the 4th swim and finally 30 min prior to the 5th swim. Discs were rated as above on immobility and distance swum (number of quadrants entered).

Swiss Webster male mice [5] = assay: Open field motor activity and anxiety (i.p. dp6FNE/prazosin); format: in vivo, mouse; conditions: 1 h; dp6FNE 0.1-3 mg/kg/prazosin; amphetamine 2 mg/kg i.p.
Experimental: For purposes of comparison, some animals received instead d-amphetamine, 2 mg/kg, i.p. Total quadrants entered and time in the center area of the field as a ratio to the total distance traveled were rated from videorecordings.

handling-stressed mice = assay: Home cage activity after handling and injection stress; format: in vivo, mouse; conditions: acute i.p. dp6FNE 1 mg/kg in the presence of phentolamine; cirazoline 0.1 mg/kg; FIG. 3
Experimental: FIG. 3 depicts the effect of acute i.p. dp6FNE (1 mg/kg) or cirazoline (0.1 mg/kg), (both N=1), on home cage activity in terms of rearing and ambulation, Veh (N=12).
It is known that peripheral administration of α1-agonists without phentolamine impairs exploratory behavior in the open field (Yang, et al., J Pharmacol exp Ther 1990; 255: 1064-1070).

[6] = Chronic mild stress (CMS)-anhedonia model, sweetened milk consumption; format: in vivo; conditions: FIG. 5
Source text: The latter property may actually be beneficial as it would counter the weight gain frequently reported with antidepressant treatment (Richelson, Mayo Clin Proc 2001; 76: 511-527).

[7] = in vivo; cited from earlier work
Swiss Webster male mice [8] = assay: Observation for sedation and signs of toxicity; format: in vivo, mouse
Source text: Sedation interferes with behavioral performance and is therefore a detrimental side effect to the treatment of major depressive illness in humans.
Although dp6FNE was designed to be a temporary treatment, it was of interest to determine how long it would remain effective if given repeatedly.

mice [9] = assay: Elevated plus-maze test; format: in vivo, mouse; conditions: dp6FNE 0, 1, 3, 10 mg/kg i.p. plus phentolamine 1 mg/kg; Example 6, expected
Experimental: as §1

[10] = Outside LC (n = 23), 3 nmoles/side
[11] = Within LC (n = 25), 3 nmoles/side
[12] = entire within LC group vs vehicle, 3 nmoles/side

With `COc1cc2nc(N3CCN(C(=O)C4CCCO4)CC3)nc(N)c2cc1OC` (centres unmarked) [terazosin] the Cage midline crosses (LC α1-adrenoceptors; [10]) was 16.4 ± 1.5^c, the “Time immobile (min)” value (LC α1-adrenoceptors; [10]) was 2.2 ± 0.5^c min and the Gross movements (LC α1-adrenoceptors; [10]) was 123.5 ± 7.9^c. For the same molecule, the Cage midline crosses (LC α1-adrenoceptors; [11]) was 9.2 ± 2.0^b,e, the “Time immobile (min)” value (LC α1-adrenoceptors; [11]) was 7.2 ± 1.6^b,d min and the Gross movements (LC α1-adrenoceptors; [11]) was 71.7 ± 11.7^a,d. The “TI-” value (LC α1-adrenoceptors; bilaterally injected animals) was 7.4 ± 1.4 min, the “percent decrease of GMs with respect to vehicle” value (LC α1-adrenoceptors; bilaterally injected animals) was 54.6±9.1% and the “percent decrease of cage Xs with respect to vehicle” value (LC α1-adrenoceptors; bilaterally injected animals) was 53.7±12.1%. The “percent depression of GMs compared to mean of the vehicle group” value (“percent depression of GMs” below) (LC α1-adrenoceptors; direct hits of LC) was 63.5±7.2%, the “increase of TI” value (LC α1-adrenoceptors; [12]) was 77 fold and the “reduction of GMs” value (LC α1-adrenoceptors; [12]) was 54%. For the same molecule, the “reduction of cage Xs” value (LC α1-adrenoceptors; [12]) was 55%, the “percent depression of GMs” value (LC α1-adrenoceptors; injection within 200μ of LC) was 54.0±7.5% and the “percent depression of GMs” value (LC α1-adrenoceptors; injection within 500μ of LC) was 45.6±7.0%. The “TI-” value (LC α1-adrenoceptors; unilaterally injected animals) was 6.1 ± 1.7 min, the “percent decrease of GMs with respect to vehicle” value (LC α1-adrenoceptors; unilaterally injected animals) was 50.5±11.1% and the “percent decrease of cage Xs with respect to vehicle” value (LC α1-adrenoceptors; unilaterally injected animals) was 52.1±16.5%. The “neural activity of the LC measured from c-Fos expression” value [1] was “excitation of virtually every neuron of the nucleus”, the “affinity for respective receptor” value (α1-adrenoceptors) was “low nanomolar affinities” and the “effect of coinfused antagonist on anti-immobility effect of 6FNE” value (Swiss Webster male mice [2]; 6FNE 3 nmoles + antagonist 1 nmole ivt.) was “significantly increased immobility when coinfused with 6FNE”. The “effect of antagonist alone on immobility (antagonist+vehicle versus vehicle-only)” value (Swiss Webster male mice [2]; antagonist 1 nmole ivt.) was “significantly increased immobility in the vehicle-treated animals”.

In the case of `CC(C)(C)C(=O)Oc1cc(F)c(C(O)CN)cc1OC(=O)C(C)(C)C` (centres unmarked) [dp6FNE, Dipivalyl-6-fluoronorepinephrine], the “time spent in the lighted side” value (mice [3]) is reported as “increased time spent”, the “onset of action compared with available antidepressants” value (Swiss Webster male mice [4]; acute i.p. administration) is reported as “significantly faster onset of action” and the “effect in repeated open-space swim test” value (Swiss Webster male mice [4]; acute i.p., dp6FNE 1, 3, 10 mg/kg with prazosin 0.2 mg/kg, DMI 10 mg/kg, FIG. 5) is reported as “significant antidepressant action”. The immobility versus vehicle (Swiss Webster male mice [4]; dp6FNE 0.3 mg/kg with prazosin 0.2 mg/kg, animals not pretreated with either antagonist) was “significantly reduced immobility versus vehicle”, the “distance swum versus vehicle” value (Swiss Webster male mice [4]; dp6FNE 0.3 mg/kg with prazosin 0.2 mg/kg, animals not treated with either antagonist) was “significantly increased distances swum” and the “speed or efficacy compared with partial α1-agonists” value (Swiss Webster male mice [4]; i.p. 0, 1, 3, 10 mg/kg with phentolamine 1 mg/kg, 30 min before swim, Example 5, expected) was “more rapid or efficacious than the partial α1-agonists”. The “motor activity (quadrants entered)” value (Swiss Webster male mice [5]) was “little or no effect on locomotor activity”, the “relative time in the center of the field” value (Swiss Webster male mice [5]) was “increased time in the center of the field” and the “home cage exploration / behavioral inhibition after handling and injection stress” value (handling-stressed mice) was “same rescue of home cage exploration”. For the same molecule, the “CMS reduction of sweetened milk intake” value ([6]; acute i.p. dp6FNE with prazosin 0.2 mg/kg) was “eliminates the CMS reduction of intake”, the hypophagia ([6]; acute i.p. dp6FNE) was “significant hypophagia” and the “passage of the blood brain barrier / uptake by the brain” value [7] was “does pass the blood brain barrier”. The “antidepressant action in tail suspension test” value (Swiss Webster male mice [2]; i.p. 1, 3 and 10 mg/kg, FIG. 5) was “significant antidepressant action”, the “signs of toxicity (reduced arousal, disheveled fur coat)” value (Swiss Webster male mice [8]; after repeated treatment, 0.5 mg/kg i.p. 11 daily treatments, no formal measures) was “no obvious signs of toxicity” and the sedation (Swiss Webster male mice [8]; intracerebral 6FNE or peripheral dp6FNE, range of behavioral tests) was “Sedation has not been observed”. For the same molecule, the “time spent in the open arms” value (mice [9]) was “increased time spent”.
